Patent EP4603105A1, “PHARMACEUTICAL COMPOSITION CONTAINING CYCLIC COMPOUND HAVING SELECTIVE KRAS INHIBITORY EFFECT AGAINST HRAS AND NRAS” (CHUGAI SEIYAKU KABUSHIKI KAISHA, priority 2022, dated 2024)
Values belong to the molecule of their own block, whether it stands above or below them.

Tests used:
[1] = target: GDP-bound NRAS wild-type protein (Homo sapiens, UniProt P01111); experiment: Binding to NRAS by surface plasmon resonance (SPR), KD and KD ratio to KRAS; details: ratio of KD for GDP-bound NRAS wild-type protein to KD for KRAS
Chain of GDP-bound NRAS wild-type protein (P01111 whole entry): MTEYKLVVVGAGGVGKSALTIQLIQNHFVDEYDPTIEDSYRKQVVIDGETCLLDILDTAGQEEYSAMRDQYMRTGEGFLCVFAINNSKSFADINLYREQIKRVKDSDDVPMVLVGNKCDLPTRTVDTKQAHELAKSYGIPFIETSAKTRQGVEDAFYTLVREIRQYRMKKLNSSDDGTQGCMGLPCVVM
Summary of the method: (§1)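 Measured at 30°C: SPR with GDP-loaded, E. coli-expressed biotin-Avi RAS captured (~100–300 RU), ascending 75 s compound injections, HBS pH 7.4 with GDP, MgCl2, 4% DMSO. KD from 1:1 fit.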

[2] = target: GDP-bound KRAS wild-type protein (Homo sapiens, UniProt P01116); experiment: Binding to KRAS by surface plasmon resonance (SPR), dissociation constant KD; details: Single Cycle Kinetics
Chain of GDP-bound KRAS wild-type protein (P01116 1-188 isoform P01116-2): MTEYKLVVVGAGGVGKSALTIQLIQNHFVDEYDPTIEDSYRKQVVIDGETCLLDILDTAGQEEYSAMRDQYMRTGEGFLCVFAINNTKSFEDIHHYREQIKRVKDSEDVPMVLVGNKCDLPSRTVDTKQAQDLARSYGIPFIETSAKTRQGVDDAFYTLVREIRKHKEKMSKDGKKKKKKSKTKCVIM
Summary of the method: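 GDP-bound biotin-Avi RAS captured at ~100–300 RU, 30°C, pH 7.4 HBS containing 10 µM GDP, 10 mM MgCl2, 1 mM DTT, 0.01% Tween 20 and 4% DMSO. KD by 1:1 fitting.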

[3] = test system: human lung cancer strain NCI-H441; experiment: NCI-H441 cell proliferation inhibitory activity (CellTiter-Glo, 4 days); assay type: cell-based; details: NCI-H441 cells, 4 days, read-out: NCl-H441 IC50
Summary of the method: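 Signal came from […] measured per well once the reagent was added. Beforehand, cells were cultured at 37°C and 5% carbon dioxide on a compound series serially diluted in dimethyl sulfoxide.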

[4] = target: HRAS wild-type protein (Homo sapiens, UniProt P01112); experiment: Binding to HRAS by surface plasmon resonance (SPR), KD and KD ratio to KRAS; details: ratio of KD for HRAS wild-type protein to KD for KRAS
Chain of HRAS wild-type protein (P01112 whole entry): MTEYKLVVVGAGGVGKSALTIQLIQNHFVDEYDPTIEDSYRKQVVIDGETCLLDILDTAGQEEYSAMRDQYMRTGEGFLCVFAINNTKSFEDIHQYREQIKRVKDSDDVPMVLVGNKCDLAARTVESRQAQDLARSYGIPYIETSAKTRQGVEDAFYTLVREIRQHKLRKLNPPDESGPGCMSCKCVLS
Summary of the method: as §1

Structure (SMILES): CCCC[C@H]1C(=O)N[C@@H]([C@@H](C)CC)C(=O)N(C2CC2)CC(=O)N(C)[C@H]2C/C=C\CCN(C2=O)[C@@H](Cc2ccc(C)cc2)C(=O)N(C)CC(=O)N[C@@H](CCc2ccc(C(F)(F)F)c(OC)c2)C(=O)N2C[C@H](OCC)C[C@H]2C(=O)OC2(CCC2)C(=O)N(C)[C@@H](C2CCCC2)C(=O)N(C)[C@H](C(=O)N(C)C)CC(=O)N1C [PP3384]
NRAS /KRAS [1]: A (a compound having 10 or more and less than 20 is denoted as A) | Kd [2]: 1.2 nM | IC50 [3]: 18.2 nM | HRAS /KRAS [4]: B (a compound having 3 or more and less than 10 is denoted as B)

Structure (SMILES): CCC[C@H]1C(=O)N[C@@H]([C@@H](C)CC)C(=O)N(C2CC2)CC(=O)N(C)[C@H]2C/C=C\CCN(C2=O)[C@@H](Cc2ccc(C)cc2)C(=O)N(C)CC(=O)N[C@@H](CCc2ccc(C(F)(F)F)c(OC)c2)C(=O)N2C[C@H](OCC)C[C@H]2C(=O)OC2(CCC2)C(=O)N(C)[C@@H](C2CCCC2)C(=O)N(C)[C@H](C(=O)N(C)C)CC(=O)N1C [PP3387]
NRAS /KRAS [1]: A (a compound having 10 or more and less than 20 is denoted as A) | Kd [2]: 0.56 nM | IC50 [3]: 11.1 nM | HRAS /KRAS [4]: B (a compound having 3 or more and less than 10 is denoted as B)

Structure (SMILES): C#CC[C@H]1C(=O)N[C@@H]([C@@H](C)CC)C(=O)N2CCC[C@H]2C(=O)N(C)[C@H]2C/C=C\CCN(C2=O)[C@@H](Cc2ccc(C)cc2)C(=O)N(C)CC(=O)N[C@@H](CCc2ccc(C(F)(F)F)c(OC)c2)C(=O)N2C[C@H](OCC)C[C@H]2C(=O)OC2(CCC2)C(=O)N(C)[C@@H](C2CCCC2)C(=O)N(C)[C@H](C(=O)N(C)C)CC(=O)N1C [PP3389]
NRAS /KRAS [1]: A (a compound having 10 or more and less than 20 is denoted as A) | Kd [2]: 0.38 nM | IC50 [3]: 7.2 nM | HRAS /KRAS [4]: B (a compound having 3 or more and less than 10 is denoted as B)

Structure (SMILES): C#CC[C@H]1C(=O)N[C@@H]([C@@H](C)CC)C(=O)N(C2CC2)CC(=O)N(C)[C@H]2C/C=C\CCN(C2=O)[C@@H](Cc2ccc(C)cc2)C(=O)N(C)CC(=O)N[C@@H](CCc2ccc(C(F)(F)F)c(OC)c2)C(=O)N2C[C@H](OCC)C[C@H]2C(=O)OC2(CCC2)C(=O)N(C)[C@@H](C2CCCC2)C(=O)N(C)[C@H](C(=O)N(C)C)CC(=O)N1C [PP3390]
NRAS /KRAS [1]: A (a compound having 10 or more and less than 20 is denoted as A) | Kd [2]: 0.69 nM | IC50 [3]: 22.8 nM | HRAS /KRAS [4]: B (a compound having 3 or more and less than 10 is denoted as B)

Structure (SMILES): C#CC[C@H]1C(=O)N[C@@H]([C@@H](C)CC)C(=O)N(C)CC(=O)N(C)[C@H]2C/C=C\CCN(C2=O)[C@@H](Cc2ccc(C)cc2)C(=O)N(C)CC(=O)N[C@@H](CCc2ccc(C(F)(F)F)c(OC)c2)C(=O)N2C[C@H](OCC)C[C@H]2C(=O)OC2(CCC2)C(=O)N(C)[C@@H](C2CCCC2)C(=O)N(C)[C@H](C(=O)N(C)C)CC(=O)N1C [PP3391]
NRAS /KRAS [1]: B (a compound having 3 or more and less than 10 is denoted as B) | Kd [2]: 0.46 nM | IC50 [3]: 9.8 nM | HRAS /KRAS [4]: B (a compound having 3 or more and less than 10 is denoted as B)

Structure (SMILES): CCO[C@@H]1C[C@H]2C(=O)OC3(CCC3)C(=O)N(C)[C@@H](C3CCCC3)C(=O)N(C)[C@H](C(=O)N(C)C)CC(=O)N(C)[C@@H]([C@@H](C)OC)C(=O)N[C@@H]([C@@H](C)CC)C(=O)N3CCC[C@H]3C(=O)N(C)[C@H]3C/C=C\CCN(C3=O)[C@@H](Cc3ccc(C)cc3)C(=O)N(C)CC(=O)N[C@@H](CCc3ccc(C(F)(F)F)c(OC)c3)C(=O)N2C1 [PP3392]
NRAS /KRAS [1]: A (a compound having 10 or more and less than 20 is denoted as A) | Kd [2]: 0.64 nM | IC50 [3]: 11.5 nM | HRAS /KRAS [4]: B (a compound having 3 or more and less than 10 is denoted as B)

Structure (SMILES): CCO[C@@H]1C[C@H]2C(=O)OC3(CCC3)C(=O)N(C)[C@@H](C3CCCC3)C(=O)N(C)[C@H](C(=O)N(C)C)CC(=O)N(C)[C@@H]([C@@H](C)OC)C(=O)N[C@@H]([C@@H](C)CC)C(=O)N(C3CC3)CC(=O)N(C)[C@H]3C/C=C\CCN(C3=O)[C@@H](Cc3ccc(C)cc3)C(=O)N(C)CC(=O)N[C@@H](CCc3ccc(C(F)(F)F)c(OC)c3)C(=O)N2C1 [PP3393]
NRAS /KRAS [1]: A (a compound having 10 or more and less than 20 is denoted as A) | Kd [2]: 0.51 nM | IC50 [3]: 4.7 nM | HRAS /KRAS [4]: B (a compound having 3 or more and less than 10 is denoted as B)

Further molecules by falling Kd [2], results first:

Kd [2]: 1.3 nM | IC50 [3]: 28.9 nM
Structure (SMILES): CCO[C@@H]1C[C@H]2C(=O)OC3(CCC3)C(=O)N(C)[C@@H](C3CCCC3)C(=O)N(C)[C@H](C(=O)N(C)C)CC(=O)N(C)[C@@H](CC(C)C)C(=O)N[C@@H]([C@@H](C)CC)C(=O)N3CCC[C@H]3C(=O)N(C)[C@H]3C/C=C\CCN(C3=O)[C@@H](Cc3ccc(C)cc3)C(=O)N(C)CC(=O)N[C@@H](CCc3ccc(C(F)(F)F)c(OC)c3)C(=O)N2C1 [PP3380]
NRAS /KRAS [1]: A (a compound having 10 or more and less than 20 is denoted as A) | HRAS /KRAS [4]: B (a compound having 3 or more and less than 10 is denoted as B)

Kd [2]: 1.1 nM | IC50 [3]: 18.7 nM
Structure (SMILES): CCO[C@@H]1C[C@H]2C(=O)OC3(CCC3)C(=O)N(C)[C@@H](C3CCCC3)C(=O)N(C)[C@H](C(=O)N(C)C)CC(=O)N(C)[C@@H](CC(C)C)C(=O)N[C@@H]([C@@H](C)CC)C(=O)N(C3CC3)CC(=O)N(C)[C@H]3C/C=C\CCN(C3=O)[C@@H](Cc3ccc(C)cc3)C(=O)N(C)CC(=O)N[C@@H](CCc3ccc(C(F)(F)F)c(OC)c3)C(=O)N2C1 [PP3381]
NRAS /KRAS [1]: A (a compound having 10 or more and less than 20 is denoted as A) | HRAS /KRAS [4]: A (a compound having 10 or more and less than 20 is denoted as A)

Kd [2]: 0.82 nM | IC50 [3]: 11 nM
Structure (SMILES): CCO[C@@H]1C[C@H]2C(=O)OC3(CCC3)C(=O)N(C)[C@@H](C3CCCC3)C(=O)N(C)[C@H](C(=O)N(C)C)CC(=O)N(C)[C@@H]([C@H](C)OC)C(=O)N[C@@H]([C@@H](C)CC)C(=O)N3CCC[C@H]3C(=O)N(C)[C@H]3C/C=C\CCN(C3=O)[C@@H](Cc3ccc(C)cc3)C(=O)N(C)CC(=O)N[C@@H](CCc3ccc(C(F)(F)F)c(OC)c3)C(=O)N2C1 [PP3395]
NRAS /KRAS [1]: A (a compound having 10 or more and less than 20 is denoted as A) | HRAS /KRAS [4]: B (a compound having 3 or more and less than 10 is denoted as B)

Kd [2]: 0.74 nM | IC50 [3]: 17.5 nM
Structure (SMILES): CCCC[C@H]1C(=O)N[C@@H]([C@@H](C)CC)C(=O)N2CCC[C@H]2C(=O)N(C)[C@H]2C/C=C\CCN(C2=O)[C@@H](Cc2ccc(C)cc2)C(=O)N(C)CC(=O)N[C@@H](CCc2ccc(C(F)(F)F)c(OC)c2)C(=O)N2C[C@H](OCC)C[C@H]2C(=O)OC2(CCC2)C(=O)N(C)[C@@H](C2CCCC2)C(=O)N(C)[C@H](C(=O)N(C)C)CC(=O)N1C [PP3383]
NRAS /KRAS [1]: A (a compound having 10 or more and less than 20 is denoted as A) | HRAS /KRAS [4]: A (a compound having 10 or more and less than 20 is denoted as A)

Kd [2]: 0.66 nM | IC50 [3]: 10.6 nM
Structure (SMILES): CCC[C@H]1C(=O)N[C@@H]([C@@H](C)CC)C(=O)N2CCC[C@H]2C(=O)N(C)[C@H]2C/C=C\CCN(C2=O)[C@@H](Cc2ccc(C)cc2)C(=O)N(C)CC(=O)N[C@@H](CCc2ccc(C(F)(F)F)c(OC)c2)C(=O)N2C[C@H](OCC)C[C@H]2C(=O)OC2(CCC2)C(=O)N(C)[C@@H](C2CCCC2)C(=O)N(C)[C@H](C(=O)N(C)C)CC(=O)N1C [PP3386]
NRAS /KRAS [1]: A (a compound having 10 or more and less than 20 is denoted as A) | HRAS /KRAS [4]: B (a compound having 3 or more and less than 10 is denoted as B)

Kd [2]: 0.22 nM | IC50 [3]: 8.1 nM
Structure (SMILES): CCCC[C@H]1C(=O)N[C@@H]([C@@H](C)CC)C(=O)N(C)CC(=O)N(C)[C@H]2C/C=C\CCN(C2=O)[C@@H](Cc2ccc(C)cc2)C(=O)N(C)CC(=O)N[C@@H](CCc2ccc(C(F)(F)F)c(OC)c2)C(=O)N2C[C@H](OCC)C[C@H]2C(=O)OC2(CCC2)C(=O)N(C)[C@@H](C2CCCC2)C(=O)N(C)[C@H](C(=O)N(C)C)CC(=O)N1C [PP3385]
NRAS /KRAS [1]: A (a compound having 10 or more and less than 20 is denoted as A) | HRAS /KRAS [4]: B (a compound having 3 or more and less than 10 is denoted as B)

Kd [2]: 0.2 nM | IC50 [3]: 5.2 nM
Structure (SMILES): CCO[C@@H]1C[C@H]2C(=O)OC3(CCC3)C(=O)N(C)[C@@H](C3CCCC3)C(=O)N(C)[C@H](C(=O)N(C)C)CC(=O)N(C)[C@@H](CC(C)C)C(=O)N[C@@H]([C@@H](C)CC)C(=O)N(C)CC(=O)N(C)[C@H]3C/C=C\CCN(C3=O)[C@@H](Cc3ccc(C)cc3)C(=O)N(C)CC(=O)N[C@@H](CCc3ccc(C(F)(F)F)c(OC)c3)C(=O)N2C1 [PP3382]
NRAS /KRAS [1]: A (a compound having 10 or more and less than 20 is denoted as A) | HRAS /KRAS [4]: B (a compound having 3 or more and less than 10 is denoted as B)
